Target: T1, GST-RIPK1 (recombinant GST-RIPK1 kinase domain (residues 1-327)) (Homo sapiens, UniProt Q13546)
T1 construct: recombinant GST-RIPK1 kinase domain (residues 1-327) enzyme produced from baculovirus-transfected Sf21 cells; host or cells: baculovirus-transfected Sf21 insect cells
T1 sequence (Q13546 1-327): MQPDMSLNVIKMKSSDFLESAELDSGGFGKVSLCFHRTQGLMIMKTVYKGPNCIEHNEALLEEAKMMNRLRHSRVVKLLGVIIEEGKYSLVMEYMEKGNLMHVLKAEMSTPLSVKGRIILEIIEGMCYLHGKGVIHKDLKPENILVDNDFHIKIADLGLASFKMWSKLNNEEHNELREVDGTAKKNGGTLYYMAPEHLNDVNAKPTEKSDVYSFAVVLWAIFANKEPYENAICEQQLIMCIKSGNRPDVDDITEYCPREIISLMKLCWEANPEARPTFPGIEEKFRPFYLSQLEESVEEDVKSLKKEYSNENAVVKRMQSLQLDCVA
Assay: RIPK1-ADP-Glo Enzymatic Assay
Type: biochemical
Conditions: ten-point titration, top compound concentration of 100000 nM; 25 nM GST-RIPK1, 300 μM ATP, 3 μM dephosphorylated-MBP; 30 min pre-incubation, 150 min reaction
Procedure, shortened: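 GST-RIPK1 kinase domain (residues 1-327, Sf21-expressed), 25 nM, preincubated 30 min with compound, then reacted 150 min with 300 μM ATP and 3 μM dephosphorylated MBP in pH 7.3 Hepes buffer, 1% DMSO. ADP measured by ADP-Glo luminescence; EC50 from ten-point titration (top 100000 nM), four-parameter fit.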

Row | EC50 | Molecule
1 | 307 nM | Cn1cc(COC2CC3(C2)OC2CC[C@@H](c4cnccn4)N2C3=O)cn1 (stereo partly drawn) [Example 18.5, (5′S)-3-[(1-methyl-1H-pyrazol-4-yl)methoxy]-5′-(pyrazin-2-yl)tetrahydro-3′H-spiro[cyclobutane-1,2′-pyrrolo[2,1-b][1,3]oxazol]-3′-one]
2 | 14 nM | O=C1N2[C@@H](CC[C@H]2c2cc(F)cc(F)c2)O[C@]12C[C@H](Oc1nccc3nccn13)C2 [Example 9.21, (1r,3R,5′S,7a′R)-5′-(3,5-difluorophenyl)-3-[(imidazo[1,2-c]pyrimidin-5-yl)oxy]tetrahydro-3′H-spiro[cyclobutane-1,2′-pyrrolo[2,1-b][1,3]oxazol]-3′-one]
3 | 76 nM | Cc1cnn(-c2cnc(COC3CC4(C3)OC3CC[C@@H](c5cnccn5)N3C4=O)cn2)c1 (stereo partly drawn) [Example 18.15, (5′S)-3-{[5-(4-methyl-1H-pyrazol-1-yl)pyrazin-2-yl]methoxy}-5′-(pyrazin-2-yl)tetrahydro-3′H-spiro[cyclobutane-1,2′-pyrrolo[2,1-b][1,3]oxazol]-3′-one]
4 | 53 nM | COc1ccc2cc(COC3CC4(C3)OC3CC[C@@H](c5cnccn5)N3C4=O)cc(C)c2n1 (stereo partly drawn) [Example 18.41, (5′S)-3-[(2-methoxy-8-methylquinolin-6-yl)methoxy]-5′-(pyrazin-2-yl)tetrahydro-3′H-spiro[cyclobutane-1,2′-pyrrolo[2,1-b][1,3]oxazol]-3′-one]
5 | 18 nM | O=C1N2C(CC[C@H]2c2cnccn2)OC12CC(OCc1csc3ncccc13)C2 (stereo partly drawn) [Example 18.18, (5′S)-5′-(pyrazin-2-yl)-3-[(thieno[2,3-b]pyridin-3-yl)methoxy]tetrahydro-3′H-spiro[cyclobutane-1,2′-pyrrolo[2,1-b][1,3]oxazol]-3′-one]
6 | 104 nM | O=C1N2[C@@H](CC[C@H]2c2ccc(F)cc2)OC12CC(OCc1ccncc1)C2 (stereo partly drawn) [Example 9.61, (5′S,7a′R)-5′-(4-fluorophenyl)-3-[(pyridin-4-yl)methoxy]tetrahydro-3′H-spiro[cyclobutane-1,2′-pyrrolo[2,1-b][1,3]oxazol]-3′-one]
7 | 165 nM | O=C(O[C@H]1C[C@@]2(C1)O[C@@H]1CC[C@@H](c3cc(F)cc(F)c3)N1C2=O)c1ccccn1 [Example 13, (1r,3R,5′S,7a′R)-5′-(3,5-difluorophenyl)-3′-oxotetrahydro-3′H-spiro[cyclobutane-1,2′-pyrrolo[2,1-b]oxazol]-3-yl picolinate]
8 | 11 nM | O=C1N2[C@@H](CC[C@H]2c2cnccn2)OC12CC(Oc1ccc(F)c(F)c1)C2 (stereo partly drawn) [Example 19.5, (5′S,7a′R)-3-(3,4-difluorophenoxy)-5′-(pyrazin-2-yl)tetrahydro-3′H-spiro[cyclobutane-1,2′-pyrrolo[2,1-b][1,3]oxazol]-3′-one]
9 | 9 nM | O=C1N2[C@@H](CC[C@H]2c2cc(F)cc(F)c2)O[C@]12C[C@H](Oc1ncnc3occc13)C2 [Example 9.31, (1r,3R,5′S,7a′R)-5′-(3,5-difluorophenyl)-3-[(furo[2,3-d]pyrimidin-4-yl)oxy]tetrahydro-3′H-spiro[cyclobutane-1,2′-pyrrolo[2,1-b][1,3]oxazol]-3′-one]
10 | 33 nM | Cc1cc(Cl)cnc1COC1CC2(C1)O[C@@H]1CC[C@@H](c3cnccn3)N1C2=O (stereo partly drawn) [Example 22.3, (5′S,7a′R)-3-((5-chloro-3-methylpyridin-2-yl)methoxy)-5′-(pyrazin-2-yl)tetrahydro-3′H-spiro[cyclobutane-1,2′-pyrrolo[2,1-b]oxazol]-3′-one]
11 | 71.9 nM | O=C1N2[C@@H](CC[C@H]2c2ccc(F)cc2)OC12CC(Oc1nccn3ncnc13)C2 (stereo partly drawn) [Example 9.59, (5′S,7a′R)-5′-(4-fluorophenyl)-3-[([1,2,4]triazolo[1,5-a]pyrazin-8-yl)oxy]tetrahydro-3′H-spiro[cyclobutane-1,2′-pyrrolo[2,1-b][1,3]oxazol]-3′-one]
12 | 33.3 nM | Cn1ccc([C@@H]2CC[C@H]3O[C@]4(C[C@H](Oc5ncnn6cccc56)C4)C(=O)N32)n1 [Example 9.63, (1r,3R,5′S,7a′R)-5′-(1-methyl-1H-pyrazol-3-yl)-3-[(pyrrolo[2,1-f][1,2,4]triazin-4-yl)oxy]tetrahydro-3′H-spiro[cyclobutane-1,2′-pyrrolo[2,1-b][1,3]oxazol]-3′-one]
13 | 21 nM | Cc1cn(-c2cc(OC3CC4(C3)O[C@@H]3CC[C@@H](c5cc(F)cc(F)c5)N3C4=O)ncn2)cn1 (stereo partly drawn) [Example 9.11, (5′S,7a′R)-5′-(3,5-difluorophenyl)-3-{[6-(4-methyl-1H-imidazol-1-yl)pyrimidin-4-yl]oxy}tetrahydro-3′H-spiro[cyclobutane-1,2′-pyrrolo[2,1-b][1,3]oxazol]-3′-one]
14 | 349 nM | CSc1nnc2ccc(COC3CC4(C3)OC3CC[C@@H](c5cnccn5)N3C4=O)cn12 (stereo partly drawn) [Example 18.16, (5′S)-3-{[3-(methylsulfanyl)[1,2,4]triazolo[4,3-a]pyridin-6-yl]methoxy}-5′-(pyrazin-2-yl)tetrahydro-3′H-spiro[cyclobutane-1,2′-pyrrolo[2,1-b][1,3]oxazol]-3′-one]
15 | 446 nM | N#Cc1cc(O[C@H]2C[C@]3(C2)O[C@@H]2CC[C@@H](c4cc(F)cc(F)c4)N2C3=O)ncn1 [Example 9.12, 6-(((1s,3S,5′S,7a′R)-5′-(3,5-difluorophenyl)-3′-oxotetrahydro-3′H-spiro[cyclobutane-1,2′-pyrrolo[2,1-b]oxazol]-3-yl)oxy)pyrimidine-4-carbonitrile]
16 | 47 nM | O=C1N2[C@@H](CC[C@H]2c2cc(F)cc(F)c2)OC12CC(Oc1ncccc1F)C2 (stereo partly drawn) [Example 9.39, (5′S,7a′R)-5′-(3,5-difluorophenyl)-3-[(3-fluoropyridin-2-yl)oxy]tetrahydro-3′H-spiro[cyclobutane-1,2′-pyrrolo[2,1-b][1,3]oxazol]-3′-one]
17 | 47 nM | N#CCc1cccc(COC2CC3(C2)OC2CC[C@@H](c4cnccn4)N2C3=O)c1 (stereo partly drawn) [Example 18.62, [3-({[(5′S)-3′-oxo-5′-(pyrazin-2 yl)tetrahydro-3′H-spiro[cyclobutane-1,2′-pyrrolo[2,1-b][1,3]oxazol]-3-yl]oxy}methyl)phenyl]acetonitrile]
18 | 10.2 nM | O=C1N2[C@@H](CC[C@H]2c2ncccc2F)OC12CC(Oc1ncnn3cccc13)C2 (stereo partly drawn) [Example 9.62, (5′S,7a′R)-5′-(3-fluoropyridin-2-yl)-3-[(pyrrolo[2,1-f][1,2,4]triazin-4-yl)oxy]tetrahydro-3′H-spiro[cyclobutane-1,2′-pyrrolo[2,1-b][1,3]oxazol]-3′-one]
19 | 305 nM | CC(OC1CC2(C1)O[C@@H]1CC[C@@H](c3cc(F)cc(F)c3)N1C2=O)c1ncccc1F (single isomer, unassigned) [Example 12.5, (1R or S,3S or r,5′S,7a′R)-5′-(3,5-difluorophenyl)-3-((S or R)-1-(3-fluoropyridin-2-yl)ethoxy)tetrahydro-3′H-spiro[cyclobutane-1,2′-pyrrolo[2,1-b]oxazol]-3′-one]
20 | 201 nM | Cc1nc2c(OC3CC4(C3)O[C@@H]3CC[C@@H](c5cc(F)cc(F)c5)N3C4=O)ncnc2s1 (stereo partly drawn) [Example 9.7, (5′S,7a′R)-5′-(3,5-difluorophenyl)-3-[(2-methyl[1,3]thiazolo[5,4-d]pyrimidin-7-yl)oxy]tetrahydro-3′H-spiro[cyclobutane-1,2′-pyrrolo[2,1-b][1,3]oxazol]-3′-one]
21 | 169 nM | N#Cc1ccc(OC2CCC2)cc1COC1CC2(C1)OC1CC[C@@H](c3cnccn3)N1C2=O (stereo partly drawn) [Example 18.88, 4-(cyclobutyloxy)-2-({[(5′S)-3′-oxo-5′-(pyrazin-2-yl)tetrahydro-3′H-spiro[cyclobutane-1,2′-pyrrolo[2,1-b][1,3]oxazol]-3-yl]oxy}methyl)benzonitrile]
22 | 88 nM | CS(=O)(=O)c1ccc(COC2CC3(C2)OC2CC[C@@H](c4cnccn4)N2C3=O)cc1 (stereo partly drawn) [Example 18.67, (5′S)-3-{[4-(methylsulfonyl)phenyl]methoxy}-5′-(pyrazin-2-yl)tetrahydro-3′H-spiro[cyclobutane-1,2′-pyrrolo[2,1-b][1,3]oxazol]-3′-one]
23 | 69 nM | N#Cc1ccnc(O[C@H]2C[C@@]3(C2)O[C@@H]2CC[C@@H](c4cc(F)cc(F)c4)N2C3=O)n1 [Example 9.57, 2-(((1r,3R,5′S,7a′R)-5′-(3,5-difluorophenyl)-3′-oxotetrahydro-3′H-spiro[cyclobutane-1,2′-pyrrolo[2,1-b]oxazol]-3-yl)oxy)pyrimidine-4-carbonitrile]
24 | 736 nM | O=C1N2C(CC[C@H]2c2cnccn2)OC12CC(OCc1ccccc1-n1cccn1)C2 (stereo partly drawn) [Example 18.102, (5′S)-5′-(pyrazin-2-yl)-3-{[2-(1H-pyrazol-1-yl)phenyl]methoxy}tetrahydro-3′H-spiro[cyclobutane-1,2′-pyrrolo[2,1-b][1,3]oxazol]-3′-one]
25 | 9 nM | N#Cc1ccnc(O[C@H]2C[C@@]3(C2)O[C@@H]2CC[C@@H](c4cc(F)cc(F)c4)N2C3=O)c1 [Example 10.1, 2-(((1r,3R,5′S,7a′R)-5′-(3,5-difluorophenyl)-3′-oxotetrahydro-3′H-spiro[cyclobutane-1,2′-pyrrolo[2,1-b]oxazol]-3-yl)oxy)isonicotinonitrile]

Row | Molecule | EC50
26 | 5-{[(1r,3R,5′S,7a′R)-3′-oxo-5′- phenyltetrahydro-3′H- spiro[cyclobutane-1,2′-pyrrolo[2,1- b][1,3]oxazol]-3-yl]oxy}pyridine-3- carbonitrile [Example 9.15] | 73 nM
